From patent publication US5756478A, “Method for reducing toxicity of D-nucleoside analogs with L-nucleosides” (priority 1996, dated 1998)
“And” between values parts separate entries of the source, which are not always exact repeats. Equal values may be shown once. “Also recorded” adds a separate entry of the source. Read-outs that look alike come from different tables or passages of the source. Values belong to the molecule of their own block, whether it stands above or below them.

Assays:
HIV-1IIIB [1] = assay: Anti-HIV activity: protection of MT-2 cells infected with HIV-1IIIB (MTT-dye reduction); format: cell-based; conditions: Human immunodeficiency virus 1, MT2, 120 h, MT-2 cells, HIV-1IIIB, MOI 0.1 TCID50 per cell, 5 days, read-out: ID50 (the source's name)
Procedure: (§1) The following anti-HIV drugs were tested in combination with the L-nucleosides β-L-5-fluoro-2',b 3'-dideoxycytidine [β-L-FddC or L(-)FddC], β-L-5-fluoro-2',3'-dideoxy-2',3'-didehydrocytidine [β-L-Fd4C or L(-)Fd4C], β-L-5-fluoro-2',3'-dideoxy-3'-thiacytidine [L(-)FTC] and β-L-2',3'-dideoxy-3'-thiacytidine [L(-)SddC or 3TC]: 3'-azido-3'deoxythymidine (AZT) as well as the β-D-2',3'-dideoxynucleosides, for example, β-D-2',3'-dideoxycytidine (ddC), β-D-2',3'-dideoxyadenosine, β-D-2',3'-dideoxyinosine (DDI) and β-D-2',3'-didehydro-3'-deoxy-thymidine (D4T). β-L-FddC and β-L-Fd4C was obtained following the method of Lin, et al., J. Med. Chem., 37, no. 6 (1994). L(-)FTC and L(-)SddC were prepared by standard literature procedures. See, for example, Jeong, et al. J. Med. Chem., 36, 181 (1993). AZT was obtained from Sigma Chemical Co., St. Louis, Mo., USA. ddC was obtained from Aldrich Chemical Co., Milwaukke, Wis. USA. DDI and D4T were obtained from Bristol-Myers Co., Wallingford, Conn., USA.
(§2) The above-mentioned drugs were tested using MT-2 cells infected with HIV-1IIIB as described by JW Mellers, et al., Molecular Pharm. 41, 446-451 (1991) with some modification. Briefly, triplicate wells of 96-well plates containing 1×10^4 MT-2 cells were infected with HIV-1IIIB at a multiplicity of infection (MOI) of 0.1 TCID50 per cell (TCID50 - 50% tissue culture infective dose). Serial dilutions of drug were added immediately after infection. Cell viability was quantitated 5 days after infection by the MTT-dye reduction model (Larder, et al. Antimicrob. Agents Chemother. 34, 436-441, 1990). The percentage of protection was calculated with the formula [(a-b/c-b)×100], in which a=the A595 of drug-treated, virus-infected well, b=A595 of no-drug infected wells, and c=A595 of no-drug, uninfected wells.

[2] = system: CEM, a Human T-type lymphoblast tumor cell line; assay: Cell growth inhibition of CEM cells by D-nucleosides with or without L-nucleosides; format: cell-based
From the text: CEM, a Human T-type lymphoblast tumor cell line was used for this study. […] At the end of four days after the addition of the drug, the cell number was estimated by hemocytometer. […] The data, presented below in Table 1-3, are normalized against the control. The parenthetical values represent the expected effect the combined agents should have on cell growth.

[3] = system: Mitochondrial DNA (mtDNA); assay: Mitochondrial DNA (mtDNA) content of CEM cells (slot blot); format: cell-based, Human; conditions: with AZT, ddC, DDI or D4T
Procedure: To determine the effect of nucleoside analogues on mtDNA content, CEM cells were treated with various concentrations of drug 8 days with medium and drug changes every 2 days. Cells (1×10^5)are washed twice with phosphate buffered […] (PBS) and resuspended in 25 mM Tris (pH 8.0) and 1 mM EDTA. The cells are lysed by 5 cycles of freeze/thaw. RNAase A (DNase free, final concentration of 0.1 mg/ml) is added to the cel ysate and incubated for 3 hours at 50° C. The lysate is brought to a final concentration of 10×SSC, boiled for 10 min., and applied to a nylon membrane presoaked in 2X SSC using a slot blot apparatus. […] All blots are normalized for loading using an Alu probe (ATCC). Blots are exposed to X-ray film and quantitated using a Molecular Dynamics Personal Densitometer SI.

HIV-1IIIB [4] = assay: Anti-HIV combination of D- and L-nucleosides in HIV-1IIIB infected MT-2 cells (isobolograms); format: cell-based; conditions: for Effect of L-nucleoside on ID50 of co-administered D-nucleoside: with AZT, D4T, ddC or DDI
Procedure: as §1, §2
Isobolograms (FIGS. 1-2) were plotted as the percent change in the ID50 of β-L-FddC (L(-)FddC), L(-)FTC, L(-)SddC (FIGS. 1 and 2) β-L-Fd4C (L(-)Fd4C) at various concentrations in combination with AZT, D4T, ddC or DDI at varying concentations on the x-axis and vice versa on the y-axis. Isobolograms (FIG. 3) were plotted as the percent change in the ID50 of β-L-Fd4C (L(-)Fd4C) at various concentrations in combination with AZT or D4T at varying concentrations on the x-axis and vice-versa on the y-axis.

[5] = Homo sapiens, CCRF-CEM, 96 h, single agent, 1.0 uM, day 4, read-out: Day 4 Cell Growth - % of Control
[6] = Homo sapiens, CCRF-CEM, 96 h, single agent, 0.1 uM, day 4, read-out: Day 4 Cell Growth - % of Control

IC50 (HIV-1IIIB [1]): 450 nM
SMILES: Nc1nc(=O)n(C2CCC(CO)O2)cc1F (single isomer, unassigned) [β-L-FddC, β-L-5-fluoro-2',3'-dideoxycytidine]
activity at 1 µM [2, 5]: 84%
Effect of L-nucleoside on D-nucleoside inhibition of mitochondrial DNA synthesis [3]: could prevent the effect of AZT, ddC, DDI or D4T in inhibiting the synthesis of mitochondrial DNA synthesis; also recorded: appears to inhibit the ability of the co-administered D-nucleoside to inhibit the synthesis of mitochondrial DNA
Effect of L-nucleoside on ID50 of co-administered D-nucleoside (HIV-1IIIB [4]): reduces the ID50 value of AZT, ddC, DDI and D4T; also recorded: decreases the ID50 of a co-administered D-nucleoside and vice versa

SMILES: Nc1nc(=O)n([C@@H]2CS[C@H](CO)O2)cc1F [L(-)FTC, β-L-5-fluoro-2',3'-dideoxy-3'-thiacytidine]
IC50 (HIV-1IIIB [1]; unit inferred): 600 nM
activity at 0.1 µM [2, 6]: 104%
activity at 1 µM [2, 5]: 87%
activity at 10 µM ([2]; Homo sapiens, CCRF-CEM, 96 h, single agent, 10 uM, day 4, read-out: Day 4 Cell Growth - % of Control): 76%
Day 4 Cell Growth - % of Control ([2]; single agent, 1.0 uM, listed as (-) FTC, 5760 min): 84 % of Control
Day 4 Cell Growth - % of Control ([2]; single agent, 1.0 uM, listed as FTC, 5760 min): 87 % of Control
Effect of L-nucleoside on D-nucleoside inhibition of mitochondrial DNA synthesis [3]: could prevent the effect of AZT, ddC, DDI or D4T in inhibiting the synthesis of mitochondrial DNA synthesis
Effect of L-nucleoside on ID50 of co-administered D-nucleoside (HIV-1IIIB [4]): reduces the ID50 value of AZT, ddC, DDI and D4T; also recorded: decreases the ID50 of a co-administered D-nucleoside and vice versa

IC50 (HIV-1IIIB [1]): 600 nM
SMILES: Nc1ccn(C2CCC(CO)O2)c(=O)n1 [ddC, β-D-2',3'-dideoxycytidine]
Day 4 Cell Growth - % of Control ([2]; 0.01 uM, in combination with 1 uM 3TC): 86 % of Control
Day 4 Cell Growth - % of Control ([2]; 0.01 uM, in combination with 1 uM (-) FTC): 91 % of Control
Day 4 Cell Growth - % of Control ([2]; 0.01 uM, in combination with 1 uM β-L-FddC): 88 % of Control
Day 4 Cell Growth - % of Control ([2]; 0.1 uM, in combination with 1 uM 3TC): 83 % of Control
Day 4 Cell Growth - % of Control ([2]; 0.1 uM, in combination with 1 uM (-) FTC): 87 % of Control
Day 4 Cell Growth - % of Control ([2]; 0.1 uM, in combination with 1 uM β-L-FddC): 84 % of Control
Day 4 Cell Growth - % of Control ([2]; 1.0 uM, in combination with 1 uM 3TC): 67 % of Control
Day 4 Cell Growth - % of Control ([2]; 1.0 uM, in combination with 1 uM (-) FTC): 69 % of Control
Day 4 Cell Growth - % of Control ([2]; 1.0 uM, in combination with 1 uM β-L-FddC): 76 % of Control
activity at 0.01 µM ([2]; Homo sapiens, CCRF-CEM, 96 h, single agent, 0.01 uM, day 4, read-out: Day 4 Cell Growth - % of Control): 92%
activity at 0.1 µM [2, 6]: 80%
activity at 1 µM [2, 5]: 70%
Day 4 Cell Growth - % of Control, expected effect of the combined agents (parenthetical) ([2]; 0.01 uM with 1 uM β-L-FddC): 78 % of Control
Day 4 Cell Growth - % of Control, expected effect of the combined agents (parenthetical) ([2]; 0.1 uM with 1 uM β-L-FddC): 78 % of Control
Day 4 Cell Growth - % of Control, expected effect of the combined agents (parenthetical) ([2]; 1.0 uM with 1 uM β-L-FddC): 66 % of Control
Day 4 Cell Growth - % of Control ([2]; single agent, 0.01 uM, 5760 min): 89 % of Control and 93 % of Control
Day 4 Cell Growth - % of Control ([2]; single agent, 0.1 uM, 5760 min): 83 % of Control and 93 % of Control
Day 4 Cell Growth - % of Control ([2]; single agent, 1.0 uM, 5760 min): 65 % of Control and 79 % of Control
Nature of the anti-HIV combination effect with L-nucleosides (ID50) (HIV-1IIIB [4]; D-nucleoside co-administered with β-L-FddC, L(-)FTC, L(-)SddC or β-L-Fd4C): additively; also recorded: additive
